Reference: patent US20260250250A1, “3-(SULPHONYL OR SULFONIMIDOYL)PROP-2-EN-1-YL]-2-OXO-1,2-DIHYDROPYRIDINE-3-CARBOXAMIDE DERIVATIVES” (Flinder Therapeutics B.V., priority 2022, published 2026)

Assays:
[1] = biological target: T1, human E3 ubiquitin-protein ligase RNF31 (HOIP) (Homo sapiens, UniProt Q96EP0); assay: Cell-free HTRF-based HOIP inhibition assay; type: biochemical
T1 sequence (Q96EP0 695-1072 limits assumed): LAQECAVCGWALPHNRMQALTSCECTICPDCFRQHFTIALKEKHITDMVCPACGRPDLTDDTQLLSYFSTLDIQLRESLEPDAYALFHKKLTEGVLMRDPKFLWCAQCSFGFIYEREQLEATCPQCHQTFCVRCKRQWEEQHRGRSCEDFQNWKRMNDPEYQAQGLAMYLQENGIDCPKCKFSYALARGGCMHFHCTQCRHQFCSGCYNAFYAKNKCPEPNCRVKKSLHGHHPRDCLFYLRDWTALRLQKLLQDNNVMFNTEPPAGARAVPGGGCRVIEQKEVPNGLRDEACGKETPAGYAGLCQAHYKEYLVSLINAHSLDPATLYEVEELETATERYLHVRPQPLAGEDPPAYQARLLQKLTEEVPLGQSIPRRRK
Protocol: This assay was performed in the following steps: • a) synthesis of recombinant fragment of human E3 ubiquitin-protein ligase RNF31 (HOIP), expressed with purity >90% in E. coli system (the protein was prepared as 1 mg/mL stock in a standard formulation); • b) incubation of the compounds in a typical concentration range: 100-0.005 μM, at a final DMSO conc. 1% with a mixture of HOIP and ubiquitin activating enzyme E1 at 25° C., for 1 h at 25° C.; • c) followed by addition of a ubiquitination solution including E2 and substrates (the reaction proceeds for 2.5 h at 25° C.); and • d) HTRF detection was performed using a PHERAstar FSX (BMG Labtech) plate reader (excitation at 337 nm, dual emissions at 665 and 620 nm).

[2] = system: bladder carcinoma RT4 cell line; assay: TNF-α-induced cytotoxicity assay (CellTiter-Glo viability); type: cell-based; conditions: Homo sapiens, RT-4, 72 h
Protocol: A viability assay, using bladder carcinoma RT4 cell line, was used for identifying the potential inhibitory effect of tested compounds on HOIP activity. The viability was determined by CellTiter-Glo Luminescent Cell Viability Assay (G7571, Promega) which measures the ability of generating a luminescent signal proportional to the amount of ATP present in living cells. The assay consists of a few steps: • a) the cells were routinely sub cultivated twice a week with standard complete growth medium composition; • b) cells were preparated for the assay by creating a cell suspension at the density of 0.05 mln cells/mL and dispensed into plates (ViewPlate-384, PerkinElmer) resulting in 1000 cells/well; • c) cells were stimulated with 1.25 ng/mL TNFα and with compounds and incubated for 72 h at 37° C. in the atmosphere with 5% CO2; and • d) for detection cytotoxicity was measured with CellTiter-Glo® Luminescent Cell Viability Assay based on the method described by the manufacturer.

| SMILES | IC50 [1] [µM] | IC50 [2] [µM] |
| --- | --- | --- |
| CC(C)S(=O)(=O)/C=C\CNC(=O)c1cc2c([nH]c1=O)CCCC2 [Example 20, 2-oxo-N-[(2Z)-3-(propane-2-sulfonyl)prop-2-en-1-yl]-1,2,5,6,7,8-hexahydroquinoline-3-carboxamide] | ≤ 100 | – |
| COc1ccc(S(=O)(=O)/C=C/CNC(=O)c2cc3c([nH]c2=O)CCCCC3)cc1F [Example 37, N-[(2E)-3-(3-fluoro-4-methoxybenzenesulfonyl)prop-2-en-1-yl]-2-oxo-1H,2H,5H,6H,7H,8H,9H-cyclohepta[b]pyridine-3-carboxamide] | ≤ 10 | – |
| O=C(NC/C=C/S(=O)(=O)c1ccccc1)c1cc2c([nH]c1=O)CCN(C(=O)C1CCC(F)(F)CC1)C2 [Example 108, N-[(2E)-3-(benzenesulfonyl)prop-2-en-1-yl]-6-(4,4-difluorocyclohexanecarbonyl)-2-oxo-1,2,5,6,7,8-hexahydro-1,6-naphthyridine-3-carboxamide] | ≤ 10 | – |
| O=C(NC/C=C/S(=O)(=O)c1ccccc1)c1cc2c([nH]c1=O)CCN(C(=O)C1CCN(c3ccccc3)C1)C2 (stereo not shown) [Example 118, N-[(2E)-3-(benzenesulfonyl)prop-2-en-1-yl]-2-oxo-6-(1-phenylpyrrolidine-3-carbonyl)-1,2,5,6,7,8-hexahydro-1,6-naphthyridine-3-carboxamide] | ≤ 1 | – |
| O=C(NC/C=C/S(=O)(=O)c1ccccc1Cl)c1cc(-c2ccccc2)c[nH]c1=O [Example 129, N-[(2E)-3-(2-chlorobenzenesulfonyl)prop-2-en-1-yl]-2-oxo-5-phenyl-1,2-dihydropyridine-3-carboxamide] | ≤ 1 | ≤ 10 |
| O=C(NC/C=C/S(=O)(=O)c1ccc(Cl)cc1)c1cc(-c2ccccc2)c[nH]c1=O [Example 130, N-[(2E)-3-(4-chlorobenzenesulfonyl)prop-2-en-1-yl]-2-oxo-5-phenyl-1,2-dihydropyridine-3-carboxamide] | ≤ 10 | – |
| N=S(=O)(/C=C/CNC(=O)c1cc2c([nH]c1=O)CCCC2)c1ccc(C(F)(F)F)cc1 (stereo not shown) [Example 154, N-[(2E)-3-[imino(oxo)[4-(trifluoromethyl)phenyl]-λ^6-sulfanyl]prop-2-en-1-yl]-2-oxo-1,2,5,6,7,8-hexahydroquinoline-3-carboxamide] | ≤ 0.1 | ≤ 1 |
| N=S(=O)(/C=C/CNC(=O)c1cc2c([nH]c1=O)CCCC2)c1ccc(-c2ccccc2)cc1 (stereo not shown) [Example 156, N-[(2E)-3-({[1,1′-biphenyl]-4-yl}(imino)oxo-λ^6-sulfanyl)prop-2-en-1-yl]-2-oxo-1,2,5,6,7,8-hexahydroquinoline-3-carboxamide] | ≤ 0.1 | ≤ 1 |
| COc1ccc(S(=N)(=O)/C=C/CNC(=O)c2cc3cnccc3[nH]c2=O)cc1F (stereo not shown) [Example 159, N-[(2E)-3-[(3-fluoro-4-methoxyphenyl)(imino)oxo-λ^6-sulfanyl]prop-2-en-1-yl]-2-oxo-1,2-dihydro-1,6-naphthyridine-3-carboxamide] | ≤ 1 | ≤ 100 |
| N=S(=O)(/C=C/CNC(=O)c1cc2c([nH]c1=O)CCCC2)c1ccc(N2CCCCC2)cc1 (stereo not shown) [Example 161, N-[(2E)-3-[imino(oxo)[4-(piperidin-1-yl)phenyl]-λ^6-sulfanyl]prop-2-en-1-yl]-2-oxo-1,2,5,6,7,8-hexahydroquinoline-3-carboxamide] | – | ≤ 1 |
| N=S(=O)(/C=C/CNC(=O)c1cc2c([nH]c1=O)CCCC2)c1ccc(N2CCCCC2=O)cc1 (stereo not shown) [Example 176, N-[(2E)-3-[imino(oxo)[4-(2-oxopiperidin-1-yl)phenyl]-λ^6-sulfanyl]prop-2-en-1-yl]-2-oxo-1,2,5,6,7,8-hexahydroquinoline-3-carboxamide] | ≤ 1 | – |

The next lines start with results.

| IC50 [1] [µM] | SMILES | IC50 [2] [µM] |
| --- | --- | --- |
| ≤ 10 | CC(=O)N1CCc2[nH]c(=O)c(C(=O)NC/C=C/S(=O)(=O)c3ccccc3)cc2C1 [Example 13, 6-acetyl-N-[(2E)-3-(benzenesulfonyl)prop-2-en-1-yl]-2-oxo-1,2,5,6,7,8-hexahydro-1,6-naphthyridine-3-carboxamide] | – |
| ≤ 100 | CC(/C=C/S(=O)(=O)c1ccccc1)NC(=O)c1cc2c([nH]c1=O)CCCC2 (stereo not shown) [Example 14, N-[(3E)-4-(benzenesulfonyl)but-3-en-2-yl]-2-oxo-1,2,5,6,7,8-hexahydroquinoline-3-carboxamide] | – |
| ≤ 10 | CS(=O)(=O)/C=C/CNC(=O)c1cc2c([nH]c1=O)CCCC2 [Example 15, N-[(2E)-3-methanesulfonylprop-2-en-1-yl]-2-oxo-1,2,5,6,7,8-hexahydroquinoline-3-carboxamide] | – |
| ≤ 10 | O=C(NC/C=C/S(=O)(=O)C1CCCC1)c1cc2c([nH]c1=O)CCCC2 [Example 17, N-[(2E)-3-(cyclopentanesulfonyl)prop-2-en-1-yl]-2-oxo-1,2,5,6,7,8-hexahydroquinoline-3-carboxamide] | – |
| ≤ 10 | CC(C)S(=O)(=O)/C=C/CNC(=O)c1cc2c([nH]c1=O)CCCC2 [Example 18, 2-oxo-N-[(2E)-3-(propane-2-sulfonyl)prop-2-en-1-yl]-1,2,5,6,7,8-hexahydroquinoline-3-carboxamide] | – |
| ≤ 100 | CC(C)(C)S(=O)(=O)/C=C/CNC(=O)c1cc2c([nH]c1=O)CCCC2 [Example 23, N-[(2E)-3-(2-methylpropane-2-sulfonyl)prop-2-en-1-yl]-2-oxo-1,2,5,6,7,8-hexahydroquinoline-3-carboxamide] | – |
| ≤ 10 | O=C(NC/C=C/S(=O)(=O)c1ccccc1)c1cc2c([nH]c1=O)CCN(C(=O)C1CC(F)(F)C1)C2 [Example 102, N-[(2E)-3-(benzenesulfonyl)prop-2-en-1-yl]-6-(3,3-difluorocyclobutanecarbonyl)-2-oxo-1,2,5,6,7,8-hexahydro-1,6-naphthyridine-3-carboxamide] | – |
| ≤ 1 | COCCC(=O)N1CCc2[nH]c(=O)c(C(=O)NC/C=C/S(=O)(=O)c3ccccc3)cc2C1 [Example 105, N-[(2E)-3-(benzenesulfonyl)prop-2-en-1-yl]-6-(3-methoxypropanoyl)-2-oxo-1,2,5,6,7,8-hexahydro-1,6-naphthyridine-3-carboxamide] | – |
| ≤ 1 | O=C(NC/C=C/S(=O)(=O)c1ccccc1)c1cc2c([nH]c1=O)CCN(C(=O)CC13CC4CC(CC(C4)C1)C3)C2 [Example 106, 6-[2-(adamantan-1-yl)acetyl]-N-[(2E)-3-(benzenesulfonyl)prop-2-en-1-yl]-2-oxo-1,2,5,6,7,8-hexahydro-1,6-naphthyridine-3-carboxamide] | ≤ 10 |
| ≤ 10 | N#CC1(C(=O)N2CCc3[nH]c(=O)c(C(=O)NC/C=C/S(=O)(=O)c4ccccc4)cc3C2)CCC1 [Example 111, N-[(2E)-3-(benzenesulfonyl)prop-2-en-1-yl]-6-(1-cyanocyclobutanecarbonyl)-2-oxo-1,2,5,6,7,8-hexahydro-1,6-naphthyridine-3-carboxamide] | – |
| ≤ 10 | COC(C)(C)CC(=O)N1CCc2[nH]c(=O)c(C(=O)NC/C=C/S(=O)(=O)c3ccccc3)cc2C1 [Example 124, N-[(2E)-3-(benzenesulfonyl)prop-2-en-1-yl]-6-(3-methoxy-3-methylbutanoyl)-2-oxo-1,2,5,6,7,8-hexahydro-1,6-naphthyridine-3-carboxamide] | – |
| ≤ 10 | COc1ccc(S(=N)(=O)/C=C/CNC(=O)c2cc3c([nH]c2=O)C(C)(C)CCC3)cc1F (stereo not shown) [Example 155, N-[(2E)-3-[(3-fluoro-4-methoxyphenyl)(imino)oxo-λ^6-sulfanyl]prop-2-en-1-yl]-8,8-dimethyl-2-oxo-1,2,5,6,7,8-hexahydroquinoline-3-carboxamide] | ≤ 10 |
| ≤ 10 | N=S(=O)(/C=C/CNC(=O)c1cc2c([nH]c1=O)CCCC2)Cc1ccccc1 (stereo not shown) [Example 157, N-[(2E)-3-[benzyl(imino)oxo-λ^6-sulfanyl]prop-2-en-1-yl]-2-oxo-1,2,5,6,7,8-hexahydroquinoline-3-carboxamide] | – |
| ≤ 1 | COc1ccc(S(=N)(=O)/C=C/CNC(=O)c2cc3cccnc3[nH]c2=O)cc1F (stereo not shown) [Example 158, N-[(2E)-3-[(3-fluoro-4-methoxyphenyl)(imino)oxo-λ^6-sulfanyl]prop-2-en-1-yl]-2-oxo-1,2-dihydro-1,8-naphthyridine-3-carboxamide] | ≤ 10 |
| ≤ 1 | N=S(=O)(/C=C/CNC(=O)c1cc2c([nH]c1=O)CCCC2)c1ccc(N2CCOCC2)cc1 (stereo not shown) [Example 160, N-[(2E)-3-{imino[4-(morpholin-4-yl)phenyl]oxo-λ^6-sulfanyl}prop-2-en-1-yl]-2-oxo-1,2,5,6,7,8-hexahydroquinoline-3-carboxamide] | ≤ 1 |
